Test results published in patent publication US20020002171A1, “Materials and methods for killing nematodes and nematode eggs” (priority 2000, published 2002).

System: Caenorhabditis elegans
Experiment: C. elegans L1 nematicidal dose response in 96-well plates, 5 day visual score (Example 2; same procedure for Example 7, Table 3)
Type: in vivo
Design: key to 5 Day Visual Score V1 / 5 Day Visual Score V2 / 5 Day Visual Score V3 / 5 Day Visual Score V4 / 5 Day Visual Score V6 / 5 Day Visual Score V5 / Initial HTS Run Visual Score / Follow-up HTS Run Visual Score: Dead: only stiff L1s (no movement); Dead (L4): worms are dead, but at a later larval stage; majority of worms are L1 (based on size) worms move when plate is tapped; majority of worms are L2 (based on size); majority of worms are L3 (based on size); majority of worms are L4 (based on size); AD: majority of worms are adult; #AD: 5 adult worms or less; B!: sterile (0-25 progeny); B: low broodsize (25-100 progeny); ˜B: moderate broodsize (100-250 progeny); <: reduced broodsize (250-500 progeny); OK: no effect (˜1000+ progeny)
Details: for 5 Day Visual Score V1 / 5 Day Visual Score V2 / 5 Day Visual Score V3 / 5 Day Visual Score V4 / 5 Day Visual Score V5 / 5 Day Visual Score V6: dose response; for 5 Day Visual Score V1: dilution V1, day 5; for 5 Day Visual Score V2: dilution V2, day 5; for 5 Day Visual Score V3: dilution V3, day 5; for 5 Day Visual Score V4: dilution V4, day 5; for 5 Day Visual Score V5: dilution V5, day 5; for 5 Day Visual Score V6: dilution V6, day 5
Procedure, shortened: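 L1 larvae, 20 per well in NGM with 1% E. coli HB101 and antibiotic/antimycotic, exposed to six 3-fold dilutions from 70 μM down to 0.3 μM (1.4% DMSO at top). Held at 20° C; viability scored visually under 100× dissecting microscope on day 5.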

Compound	Follow-up HTS Run % Run	Follow-up HTS Run Visual Score	Follow-up HTS Run mOD	Initial HTS Run % Run	Initial HTS Run Visual Score	Initial HTS Run mOD	5 Day Visual Score V1	5 Day Visual Score V2	5 Day Visual Score V3	5 Day Visual Score V4	5 Day Visual Score V5	5 Day Visual Score V6
CC1CC(C)CN(c2nc(NCc3c(F)cccc3F)ns2)C1 (stereo not shown) [compound 245]	117%	B! (sterile (0-25 progeny))	189 mOD	103%	B!-Few Eggs	113 mOD	L2/Dead(L3)	#AD/˜B	< (reduced broodsize (250-500 progeny))	OK (no effect (˜1000+ progeny))	OK (no effect (˜1000+ progeny))	OK (no effect (˜1000+ progeny))
Fc1cccc(F)c1CNc1nsc(N2CCN(c3cccc(C(F)(F)F)c3)CC2)n1 [compound 246]	130%	–	209 mOD	123%	L3	135 mOD	Dead	–	OK (no effect (˜1000+ progeny))	OK (no effect (˜1000+ progeny))	OK (no effect (˜1000+ progeny))	OK (no effect (˜1000+ progeny))
CC1CCN(c2nc(NCc3ccc(C(F)(F)F)cc3)ns2)CC1 [compound 247]	105%	–	169 mOD	91%	–	100 mOD	–	˜B (moderate broodsize (100-250 progeny))	OK (no effect (˜1000+ progeny))	OK (no effect (˜1000+ progeny))	OK (no effect (˜1000+ progeny))	OK (no effect (˜1000+ progeny))
CC1CC(C)CN(c2nc(NCc3ccc(C(F)(F)F)cc3)ns2)C1 (stereo not shown) [compound 248]	112%	L3/L4/AD/B!	181 mOD	99%	L3/L4/AD/B	109 mOD	–	˜B (moderate broodsize (100-250 progeny))	< (reduced broodsize (250-500 progeny))	OK (no effect (˜1000+ progeny))	OK (no effect (˜1000+ progeny))	OK (no effect (˜1000+ progeny))
CCN(CC)C(=O)C1CCCN(c2nc(NCc3ccc(C(F)(F)F)cc3)ns2)C1 (stereo not shown) [compound 249]	112%	–	180 mOD	98%	–	108 mOD	–	˜B (moderate broodsize (100-250 progeny))	OK (no effect (˜1000+ progeny))	OK (no effect (˜1000+ progeny))	OK (no effect (˜1000+ progeny))	OK (no effect (˜1000+ progeny))
FC(F)(F)c1ccc(CNc2nsc(N3CCN(c4cccc(C(F)(F)F)c4)CC3)n2)cc1 [compound 250]	125%	–	201 mOD	108%	L2 - (Dead L3)	119 mOD	L3/Dead(L3)	L4/#AD/B!	B (low broodsize (25-100 progeny))	OK (no effect (˜1000+ progeny))	OK (no effect (˜1000+ progeny))	OK (no effect (˜1000+ progeny))
CC(O)CN(CC(C)O)c1nc(NCc2ccc(C(F)(F)F)cc2)ns1 (stereo not shown) [compound 252]	100%	L2 - Dead L3	161 mOD	100%	Dead(L3)	110 mOD	Dead(L3)	Dead(L3)	–	< (reduced broodsize (250-500 progeny))	< (reduced broodsize (250-500 progeny))	< (reduced broodsize (250-500 progeny))
